In PubChem BioAssay AID330 (DTP/NCI, 2004):
“And” between values parts separate entries of the source, which are not always exact repeats. Equal values may be shown once. Inconclusive results and toxic doses are left out.

Tested on: P388 leukemia ip, CD2F1 mice, survival T/C
Assay: NCI In Vivo Anticancer Drug Screen. Data for tumor model P388 Leukemia (intraperitoneal) in CD2F1 (CDF1) mice
Details: endpoint: median survival time, higher = longer survival
In short: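 Mice carrying the transplanted tumor received test compound or vehicle. Survival was recorded in each group, and the value is the treated-group measurement divided by that of the vehicle-treated control group.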

[1] = dose: 100.0 mg/kg/injection, schedule: Q01DX001 (ip), vehicle: saline with Tween-80
[2] = dose: 200.0 mg/kg/injection, schedule: Q01DX001 (ip), vehicle: saline with Tween-80
[3] = dose: 400.0 mg/kg/injection, schedule: Q01DX001 (ip), vehicle: saline with Tween-80
[4] = dose: 50.0 mg/kg/injection, schedule: Q01DX009 (ip), vehicle: Klucel (hydroxypropylcellulose) (HPC)
[5] = dose: 100.0 mg/kg/injection, schedule: Q01DX009 (ip), vehicle: Klucel (hydroxypropylcellulose) (HPC)
[6] = dose: 50.0 mg/kg/injection, schedule: Q01DX009 (ip), vehicle: saline with Tween-80
[7] = dose: 100.0 mg/kg/injection, schedule: Q01DX009 (ip), vehicle: saline with Tween-80
[8] = dose: 200.0 mg/kg/injection, schedule: Q01DX009 (ip), vehicle: saline with Tween-80
[9] = dose: 50.0 mg/kg/injection, schedule: Q01DX009 (ip), vehicle: saline
[10] = dose: 100.0 mg/kg/injection, schedule: Q01DX009 (ip), vehicle: saline
[11] = dose: 60.0 mg/kg/injection, schedule: Q01DX005 (ip), vehicle: saline with Tween-80
[12] = dose: 120.0 mg/kg/injection, schedule: Q01DX005 (ip), vehicle: saline with Tween-80
[13] = dose: 240.0 mg/kg/injection, schedule: Q01DX005 (ip), vehicle: saline with Tween-80
[14] = dose: 6.25 mg/kg/injection, schedule: Q01DX005 (ip), vehicle: Klucel (hydroxypropylcellulose) (HPC)
[15] = dose: 12.5 mg/kg/injection, schedule: Q01DX005 (ip), vehicle: Klucel (hydroxypropylcellulose) (HPC)
[16] = dose: 25.0 mg/kg/injection, schedule: Q01DX005 (ip), vehicle: Klucel (hydroxypropylcellulose) (HPC)

COC1/C=C/OC2(C)Oc3c(C)c(O)c4c(c3C2=O)C(=O)c2cnc(nc2C4=O)/C(C)=C\C=C\C(C)C(O)C(C)C(O)C(C)C(OC(C)=O)C1C (centres undefined) was tested, and the T/C (dose: 25.0 mg/kg/injection, schedule: Q01DX009 (ip), vehicle: other) was 93 % of control, the T/C (dose: 50.0 mg/kg/injection, schedule: Q01DX009 (ip), vehicle: other) was 107 % of control and the T/C (dose: 100.0 mg/kg/injection, schedule: Q01DX009 (ip), vehicle: other) was 116 % of control.

For Nc1ccc(S(=O)(=O)NCCO)cc1[N+](=O)[O-], the T/C [1] was 95 % of control, the T/C [2] was 100 % of control and the T/C [3] was 100 % of control.

In the case of C=C1C(=O)OC2CC3(C)OC(=CC3=O)/C(C)=C\C(OC(=O)C3(C)OC3C)C12 (centres undefined), the T/C (dose: 1.56 mg/kg/injection, schedule: Q01DX005 (ip), vehicle: distilled water + Tween-80) is reported as 105 % of control, the T/C (dose: 3.12 mg/kg/injection, schedule: Q01DX005 (ip), vehicle: distilled water + Tween-80) is reported as 99 % of control and the T/C (dose: 6.25 mg/kg/injection, schedule: Q01DX005 (ip), vehicle: distilled water + Tween-80) is reported as 96 % of control. For the same molecule, the T/C (dose: 12.5 mg/kg/injection, schedule: Q01DX005 (ip), vehicle: distilled water + Tween-80) was 101 % of control.

CC1(C)C=C(C(=O)ON2C(=O)CCC2=O)C(C)(C)N1O was tested, and the T/C [4] was 113 % of control and the T/C [5] was 106 % of control.

CCC(=NCCCCCCN=C(CC)c1cc(O)ccc1O)c1cc(O)ccc1O.[Fe] was tested, and the T/C (dose: 50.0 mg/kg/injection, schedule: Q01DX005 (ip), vehicle: saline with Tween-80) was 88 % of control, the T/C (dose: 100.0 mg/kg/injection, schedule: Q01DX005 (ip), vehicle: saline with Tween-80) was 89 % of control and the T/C (dose: 200.0 mg/kg/injection, schedule: Q01DX005 (ip), vehicle: saline with Tween-80) was 91 % of control.

Nc1nc(N)c2cc(S(=O)(=O)c3cccc(C(F)(F)F)c3)ccc2n1 was tested, and the T/C [6] was 113 % of control, the T/C [7] was 117 % of control and the T/C [8] was 106 % of control.

In the case of CC(=O)OC1SCC2OC(=O)OC21 (centres undefined), the T/C [6] is reported as 108 % of control, the T/C [7] is reported as 95 % of control and the T/C [8] is reported as 96 % of control.

In the case of COc1ccc2nc3cc(Cl)ccc3c(NCCCCNc3c4ccc(Cl)cc4nc4ccc(OC)nc34)c2n1, the T/C (dose: 100.0 mg/kg/injection, schedule: Q04DX003 (ip), vehicle: saline with Tween-80) is reported as 102 % of control and the T/C (dose: 200.0 mg/kg/injection, schedule: Q04DX003 (ip), vehicle: saline with Tween-80) is reported as 118 % of control.

CC(=O)C1=C(O)/C(=C\c2ccccc2)OC1=O was tested, and the T/C [4] was 92 % of control and the T/C [5] was 107 % of control.

For C1CN2CN3CCN(CN1C3)C2, the T/C (dose: 6.25 mg/kg/injection, schedule: Q01DX009 (ip), vehicle: saline) was 108 % of control, the T/C [9] was 158 % of control and the T/C [10] was 168 % of control.

CC(C)(C)C(=Nc1ccccc1)OC(c1ccccc1)(C(F)(F)F)C(F)(F)F was tested, and the T/C (dose: 100.0 mg/kg/injection, schedule: Q04DX002 (ip), vehicle: Klucel (hydroxypropylcellulose) (HPC)) was 105 % of control, the T/C (dose: 200.0 mg/kg/injection, schedule: Q04DX002 (ip), vehicle: Klucel (hydroxypropylcellulose) (HPC)) was 101 % of control and the T/C (dose: 400.0 mg/kg/injection, schedule: Q04DX002 (ip), vehicle: Klucel (hydroxypropylcellulose) (HPC)) was 90 % of control.

CC(=O)Oc1ccc(C2COc3cc(OC(C)=O)c(OC(C)=O)cc3C2)cc1 (centres undefined) was tested, and the T/C [11] was 104 % of control, the T/C [12] was 104 % of control and the T/C [13] was 104 % of control.

Cc1ccc(S(=O)(=O)OCC(O)C(O)COS(=O)(=O)c2ccc(C)cc2)cc1 (centres undefined) was tested, and the T/C [9] was 97 % of control, the T/C [10] was 102 % of control and 113 % of control and the T/C (dose: 200.0 mg/kg/injection, schedule: Q01DX009 (ip), vehicle: saline) was 101 % of control and 95 % of control.

CCCCCCC(O)CCCCCCCCCCC(N)=O (centres undefined) was tested, and the T/C [14] was 99 % of control, the T/C [15] was 96 % of control and the T/C [16] was 94 % of control.

CC(C)(C)/[N+]([O-])=C/C=C\C=C\C=O was tested, and the T/C (dose: 50.0 mg/kg/injection, schedule: Q01DX001 (ip), vehicle: Klucel (hydroxypropylcellulose) (HPC)) was 116 % of control, the T/C (dose: 100.0 mg/kg/injection, schedule: Q01DX001 (ip), vehicle: Klucel (hydroxypropylcellulose) (HPC)) was 120 % of control and the T/C (dose: 200.0 mg/kg/injection, schedule: Q01DX001 (ip), vehicle: Klucel (hydroxypropylcellulose) (HPC)) was 122 % of control.

O=C(NCCc1ccc(Cl)cc1)c1ccc(Cl)cc1 was tested, and the T/C [11] was 96 % of control, the T/C [12] was 97 % of control and the T/C [13] was 91 % of control.

CCCOC1(C)CC(c2cc(OC)c(OC)c(OC)c2)c2cc3c(cc2O1)OCO3 (centres undefined) was tested, and the T/C (dose: 60.0 mg/kg/injection, schedule: Q01DX005 (ip), vehicle: Klucel (hydroxypropylcellulose) (HPC)) was 93 % of control, the T/C (dose: 120.0 mg/kg/injection, schedule: Q01DX005 (ip), vehicle: Klucel (hydroxypropylcellulose) (HPC)) was 91 % of control and the T/C (dose: 240.0 mg/kg/injection, schedule: Q01DX005 (ip), vehicle: Klucel (hydroxypropylcellulose) (HPC)) was 91 % of control.

CCN(CC)Cc1c(O)c(N=Nc2cccc3ccccc23)cc2ccccc12 was tested, and the T/C (dose: 3.0 mg/kg/injection, schedule: Q01DX009 (ip), vehicle: Klucel (hydroxypropylcellulose) (HPC)) was 111 % of control, the T/C (dose: 6.0 mg/kg/injection, schedule: Q01DX009 (ip), vehicle: Klucel (hydroxypropylcellulose) (HPC)) was 107 % of control and the T/C (dose: 12.0 mg/kg/injection, schedule: Q01DX009 (ip), vehicle: Klucel (hydroxypropylcellulose) (HPC)) was 104 % of control. For the same molecule, the T/C (dose: 12.5 mg/kg/injection, schedule: Q01DX009 (ip), vehicle: Klucel (hydroxypropylcellulose) (HPC)) was 113 % of control.

With CCNC(=O)N(CC(N)=O)c1ncc([N+](=O)[O-])s1 the T/C (dose: 6.25 mg/kg/injection, schedule: Q01DX001 (ip), vehicle: saline) was 105 % of control, the T/C (dose: 12.5 mg/kg/injection, schedule: Q01DX001 (ip), vehicle: saline) was 103 % of control and the T/C (dose: 25.0 mg/kg/injection, schedule: Q01DX001 (ip), vehicle: saline) was 104 % of control. For the same molecule, the T/C (dose: 50.0 mg/kg/injection, schedule: Q01DX001 (ip), vehicle: saline) was 100 % of control and 103 % of control and the T/C (dose: 100.0 mg/kg/injection, schedule: Q01DX001 (ip), vehicle: saline) was 106 % of control and 97 % of control.

With O=C(O)CC(=O)Nc1ccccc1S the T/C [6] was 102 % of control, the T/C [7] was 90 % of control and the T/C [8] was 101 % of control.

For CC(=O)OCC1OC(n2ccc3c(=O)[nH]c(=O)[nH]c32)C(OC(C)=O)C(OC(C)=O)C1OC(C)=O (centres undefined), the T/C [1] was 104 % of control, the T/C [2] was 99 % of control and the T/C [3] was 100 % of control.

With COc1cc2ccnc(C3(OC(=O)c4ccccc4)CCN(CCc4ccccc4)CC3)c2cc1OC the T/C (dose: 12.5 mg/kg/injection, schedule: Q01DX009 (ip), vehicle: saline) was 96 % of control, the T/C (dose: 25.0 mg/kg/injection, schedule: Q01DX009 (ip), vehicle: saline) was 92 % of control and the T/C [6] was 96 % of control.

For CC(=O)OCC12C(=O)CC(C)C3(CC(c4ccoc4)OC3=O)C1(C)CCCC21CO1 (centres undefined), the T/C (dose: 3.12 mg/kg/injection, schedule: Q01DX005 (ip), vehicle: Klucel (hydroxypropylcellulose) (HPC)) was 97 % of control, the T/C [14] was 97 % of control and the T/C [15] was 99 % of control. The T/C [16] was 92 % of control and the T/C (dose: 50.0 mg/kg/injection, schedule: Q01DX005 (ip), vehicle: Klucel (hydroxypropylcellulose) (HPC)) was 94 % of control.

With CCN(CC)C(=O)/C(C)=C1/c2ccccc2S(=O)(=O)N1C the T/C (dose: 100.0 mg/kg/injection, schedule: Q04DX003 (ip), vehicle: Klucel (hydroxypropylcellulose) (HPC)) was 109 % of control, the T/C (dose: 200.0 mg/kg/injection, schedule: Q04DX003 (ip), vehicle: Klucel (hydroxypropylcellulose) (HPC)) was 94 % of control and the T/C (dose: 400.0 mg/kg/injection, schedule: Q04DX003 (ip), vehicle: Klucel (hydroxypropylcellulose) (HPC)) was 98 % of control.

For CCN(CC)CCCC(C)Nc1cc(C)nc2ccc(N(C)C)cc12 (centres undefined), the T/C (dose: 15.0 mg/kg/injection, schedule: Q01DX005 (ip), vehicle: saline with Tween-80) was 108 % of control, the T/C (dose: 30.0 mg/kg/injection, schedule: Q01DX005 (ip), vehicle: saline with Tween-80) was 105 % of control and the T/C [11] was 100 % of control and 103 % of control.

O=C(NC1CCCCC1)C(=O)c1cc(Cl)c(Cl)c(Cl)c1Cl was tested, and the T/C [6] was 106 % of control, the T/C [7] was 114 % of control and the T/C [8] was 103 % of control.

Cc1cncn2ncnc12 was tested, and the T/C (dose: 100.0 mg/kg/injection, schedule: Q04DX003 (ip), vehicle: saline) was 100 % of control, the T/C (dose: 200.0 mg/kg/injection, schedule: Q04DX003 (ip), vehicle: saline) was 95 % of control and the T/C (dose: 400.0 mg/kg/injection, schedule: Q04DX003 (ip), vehicle: saline) was 95 % of control.
